Source: patent US12503437B2, “1,1-dimethyl-2-[(E)-2-phenylethenyl]-1H-benzo[e]indole derivatives and uses thereof” (Kaunas University of Technology, priority 2023, dated 2025)
Read-outs that look alike come from different tables or passages of the source.

Key:
[1] = Absorption and fluorescence properties in water; assay type: physicochemical; conditions: for λem: excitation wavelength 380 nm
Protocol: To determine the wavelength of light, at which 1,1-dimethyl-2-[(E)-2-phenylethenyl]-1H-benzo[e]indole derivatives should be irradiated for the investigation of their photodynamic activity, the absorption and fluorescence properties thereof were measured in water. The excitation wavelength λex was set to 380 nm. Based on the results an in-house constructed LED based light source specifically designed for the irradiation of 96-well microplates and Petri dishes (Tomecka et al., CZ302829B6, 2006) was chosen, with a maximal wavelength emission of 414 nm and light intensity set to 20 mW/cm^2.

[2] = test system: G361 cells (human skin melanoma); experiment: MTT cell viability assay with photodynamic treatment; assay type: cell-based; conditions: 4 h treatment, further 72 h, MTT
Protocol: For photodynamic treatments, G361 cells (human skin melanoma) were cultivated in DMEM medium without phenol red supplemented with 10% fetal bovine serum, 100 U/mL penicillin, 100 μg/mL streptomycin, 2 mM glutamine, at 37° C. in 5% CO2 atmosphere. Cells were treated with test compounds and after 4 h were irradiated (the maximal wavelength emission of 414 nm and different total doses up to 10 J/cm^2). Further cultivation lasted for subsequent 16, 24 or 72 h.
Cell viability (EC50) was determined using the MTT (Sigma-Aldrich) assay in 96-well microplates. Cells were seeded, next day treated with test compounds for 4 h and subsequently irradiated (the maximal wavelength emission of 414 nm and total dose of 2.5 and 10 J/cm^2). After irradiation, the cells were incubated for further 72 h and then the MTT solution was added. Cells were incubated for another 4 h at 37° C. and then the 0.1% SDS was added to the wells to solubilize the violet formazan crystals. The measurement of absorbance was carried out on reader Tecan Infinite M200Pro at 570 nm. Dark viability was measured in parallel under the same conditions without irradiation.

[3] = G-361, dark kept G361 cells, read-out: G361 - EC50, Dark
[4] = G-361, light or radiation study, light irradiated (414 nm, 10 J/cm^2) G361 cells, irradiation, read-out: G361 - EC50, 10 J/cm^2

SMILES | Stokes shift [1] | λabs [1] | λem [1] | EC50 [2, 3] | EC50 [2, 4]
CC1(C)C(/C=C/c2cc(C(F)(F)F)cc(C(F)(F)F)c2)=Nc2ccc3ccccc3c21 [Compound 3b, 2-{(E)-2-[3,5-Bis(trifluoromethyl)phenyl]ethenyl}-1,1-dimethyl-1H-benzo[e]indole] | 109 nm | 400 nm | 509 nm | > 10 µM | 1.3 µM
CC1(C)C(/C=C/c2ccc(F)cc2)=Nc2ccc3ccccc3c21 [Compound 3d, 2-[(E)-2-(4-Fluorophenyl)ethenyl]-1,1-dimethyl-1H-benzo[e]indole] | 102 nm | 430 nm | 532 nm | 7.3 µM | 4.1 µM
CC1(C)C(/C=C/c2ccc(C(F)(F)F)cc2)=Nc2ccc3ccccc3c21 [Compound 3e, 1,1-Dimethyl-2-{(E)-2-[4-(trifluoromethyl)phenyl]ethenyl}-1H-benzo[e]indole] | 116 nm | 415 nm | 531 nm | 3.6 µM | 0.5 µM
CC1(C)C(/C=C/c2ccc(F)c([N+](=O)[O-])c2)=Nc2ccc3ccccc3c21 [Compound 3i, 2-(E)-2-(4-Fluoro-3-nitrophenyl)ethenyl-1,1-dimethyl-1H-benzo[e]indole] | 126 nm | 399 nm | 525 nm | 7.8 µM | 2.1 µM
CC1(C)C(/C=C/c2ccc(F)c(C#N)c2)=Nc2ccc3ccccc3c21 [Compound 3j, 5-[(E)-2-(1,1-Dimethyl-1H-benzo[e]indol-2-yl)ethenyl]-2-fluorobenzonitrile] | 154 nm | 369 nm | 523 nm | 5.1 µM | 1.3 µM
CC1(C)C(/C=C/c2ccc3ccccc3c2)=Nc2ccc3ccccc3c21 [Compound 3l, 1,1-Dimethyl-2-[(E)-2-(naphthalen-2-yl)ethenyl]-1H-benzo[e]indole] | 86 nm | 437 nm | 523 nm | > 10 µM | 1.3 µM
CC1(C)C(/C=C/c2ccccc2[N+](=O)[O-])=Nc2ccc3ccccc3c21 [Compound 3p, 1,1-Dimethyl-2-[(E)-2-(2-nitrophenyl)ethenyl]-1H-benzo[e]indole] | 132 nm | 434 nm | 566 nm | 7.8 µM | 1.1 µM

Further lines, results first:

Stokes shift [1] | λabs [1] | λem [1] | EC50 [2, 3] | EC50 [2, 4] | SMILES
133 nm | 397 nm | 530 nm | 5.8 µM | 2 µM | CC1(C)C(/C=C/c2ccccc2)=Nc2ccc3ccccc3c21 [Compound 3a, 1,1-Dimethyl-2-[(E)-2-phenylethenyl]-1H-benzo[e]indole]
98 nm | 443 nm | 541 nm | 6.9 µM | 1.2 µM | CC1(C)C(/C=C/c2cc([N+](=O)[O-])ccc2Cl)=Nc2ccc3ccccc3c21 [Compound 3c, 2-[(E)-2-(2-Chloro-5-nitrophenyl)ethenyl]-1,1-dimethyl-1H-benzo[e]indole]
146 nm | 403 nm | 549 nm | 4.9 µM | 0.2 µM | COc1ccc(/C=C/C2=Nc3ccc4ccccc4c3C2(C)C)cc1[N+](=O)[O-] [Compound 3f, 2-[(E)-2-(4-Methoxy-3-nitrophenyl)ethenyl]-1,1-dimethyl-1H-benzo[e]indole]
106 nm | 426 nm | 532 nm | 7.2 µM | 0.3 µM | CC1(C)C(/C=C/c2ccc(Cl)c([N+](=O)[O-])c2)=Nc2ccc3ccccc3c21 [Compound 3h, 2-[(E)-2-(4-Chloro-3-nitrophenyl)ethenyl]-1,1-dimethyl-1H-benzo[e]indole]
98 nm | 425 nm | 523 nm | 6.9 µM | 1.3 µM | Cc1ccc(/C=C/C2=Nc3ccc4ccccc4c3C2(C)C)cc1[N+](=O)[O-] [Compound 3k, 1,1-Dimethyl-2-[(E)-2-(4-methyl-3-nitrophenyl)ethenyl]-1H-benzo[e]indole]
89 nm | 424 nm | 513 nm | 2.1 µM | 0.3 µM | CC1(C)C(/C=C/c2cccc([N+](=O)[O-])c2)=Nc2ccc3ccccc3c21 [Compound 3m, 1,1-Dimethyl-2-[(E)-2-(3-nitrophenyl)ethenyl]-1H-benzo[e]indole]
94 nm | 426 nm | 520 nm | 7.8 µM | 1.3 µM | CC1(C)C(/C=C/c2cccc(C(F)(F)F)c2)=Nc2ccc3ccccc3c21 [Compound 3n, 1,1-Dimethyl-2-{(E)-2-[3-(trifluoromethyl)phenyl]ethenyl}-1H-benzo[e]indole]
113 nm | 445 nm | 558 nm | > 10 µM | 0.4 µM | CC1(C)C(/C=C/c2cccc3ccccc23)=Nc2ccc3ccccc3c21 [Compound 3o, 1,1-Dimethyl-2-[(E)-2-(naphthalen-1-yl)ethenyl]-1H-benzo[e]indole]
